Reference: patent US8378070B2, “Peptides for the regulation of neurotransmitter sequestration and release” (Ramot at Tel-Aviv University Ltd., priority 2007, dated 2013)

Tests used:
striatum = assay: In vivo 6-hydroxydopamine hemiparkinsonian mouse model, striatal Western blotting; conditions: mice
Experimental: In vivo 6-hydroxydopamine hemiparkinsonian mouse model: Eight-week-old male C57BL/6 mice (Harlan, Israel; 22-28 g) were used for 6-hydroxydopamine hemiparkinsonian mouse model experiments. All animals were housed in standard conditions, in a constant temperature (22±1° C.), relative humidity (30%), 12-h light: 12-h dark cycle, with free access to food and water. Surgical procedures were performed under the supervision of the Animal Care Committee at the Rabin Medical Center and at Tel Aviv University, Tel Aviv, Israel. Mice received a unilateral, right intrastriatal injection of […] 6-hydroxydopamine hydrobromide (Sigma, Israel) using a stereotaxic surgical procedure. Injections were targeted to the central striatum using the following coordinates: 0.5 mm anterior to bregma, 2.0 mm lateral to bregma, and 2.5 mm deep to the skull surface. Treatments were administered in a volume of 2.0 μL at a rate of 0.5 μL/min. 24 hours after 6-hydroxydopamine lesioning, striatal tissue was collected from both the injected and intact sides for DJ-1, VMAT2 and TH analysis. For analysis of acute 6-hydroxydopamine effects on phosphokinases striatal tissue was excised after 30 and 45 minutes of 6-hydroxydopamine injection.

DJ-1 mRNA = assay: Real time quantitative PCR of DJ-1 mRNA; assay type: cell-based, human
Experimental: Cellular transfection and treatment: SH-SY5Y human neuroblastoma cells, obtained from the ATCC (Rockville, USA), were stably transfected with pIRES2-acGFP1 plasmid (BD biosciences, Clontech) containing wild type DJ-1. […] As controls, naïve neuroblastoma cells were used as well as cells stably transfected with the same vectors. Transfections were performed using the lipofectamine 2000 reagent (Invitrogen). Stable transfections were achieved by geneticin treatment and were verified by measuring DJ-1 mRNA and protein levels using real-time PCR and Western blotting. […] RNA isolation and Real time quantitative PCR: Total RNA was isolated from cultured neuroblastoma cells using a commercial reagent TriReagentTM (Sigma). The amount and quality of RNA was determined spectrophotometrically using the ND-1000 spectrophotometer (NanoDrop). First-strand cDNA synthesis was carried out from […] of the total RNA using random primer (Invitrogen) and RT-superscript II (Invitrogen) reverse transcriptase. Real-time quantitative reverse transcription polymerase chain reaction (PCR) of the desired genes was performed in an ABI Prism 7700 sequence detection system (Applied biosystems) using Sybr green PCR master mix (Applied biosystems) and the following primers: GAPDH (used as 'housekeeping' gene) sense: […] NO: 7), GAPDH antisense: […] NO: 8); DJ-1 sense: […] ID NO: 9) DJ-1 antisense: […] ID NO:10) VMAT2 sense: […] ID NO: 11) VMAT2 antisense: […] NO: 12). Real time quantitative PCR (qPCR) was performed using AbsoluteTM QPCR SYBR® Green ROX Mix, in triplicates. Quantitative calculations of the gene of interest versus GAPDH were done using the ddCT method.

DJ-1 protein = assay: Western blotting of DJ-1 protein in neuroblastoma cells; assay type: cell-based, human
Experimental: Cellular transfection and treatment: SH-SY5Y human neuroblastoma cells, obtained from the ATCC (Rockville, USA), were stably transfected with pIRES2-acGFP1 plasmid (BD biosciences, Clontech) containing wild type DJ-1. […] As controls, naïve neuroblastoma cells were used as well as cells stably transfected with the same vectors. Transfections were performed using the lipofectamine 2000 reagent (Invitrogen). Stable transfections were achieved by geneticin treatment and were verified by measuring DJ-1 mRNA and protein levels using real-time PCR and Western blotting. […] 8, 1987-1995 (2006)].

VMAT2 = target: T1, VMAT2 (Homo sapiens, UniProt Q05940); assay: KCl-induced [3H]dopamine release; assay type: cell-based
T1 construct: endogenous in cells; host or cells: SH-SY5Y human neuroblastoma cells (naive, stably transfected with wild type DJ-1, or with siRNA for DJ-1)
T1 sequence (Q05940 whole entry): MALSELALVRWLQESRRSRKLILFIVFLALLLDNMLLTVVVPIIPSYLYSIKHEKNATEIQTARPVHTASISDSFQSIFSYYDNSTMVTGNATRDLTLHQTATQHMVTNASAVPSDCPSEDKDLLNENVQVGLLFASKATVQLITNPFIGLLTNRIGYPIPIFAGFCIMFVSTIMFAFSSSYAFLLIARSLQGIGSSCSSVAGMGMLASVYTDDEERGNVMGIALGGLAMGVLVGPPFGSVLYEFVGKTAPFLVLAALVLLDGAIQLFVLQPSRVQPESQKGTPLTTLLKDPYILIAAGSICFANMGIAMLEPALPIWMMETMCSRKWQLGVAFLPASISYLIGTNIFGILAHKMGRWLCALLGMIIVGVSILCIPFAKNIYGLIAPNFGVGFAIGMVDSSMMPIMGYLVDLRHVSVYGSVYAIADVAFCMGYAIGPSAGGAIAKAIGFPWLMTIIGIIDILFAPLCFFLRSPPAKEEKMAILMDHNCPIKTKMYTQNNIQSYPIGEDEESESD
Experimental: KCl-induced dopamine release: Cells were plated on poly-D-lysin-coated 24-well plates. Cells were rinsed with assay buffer (containing Tris 4 mM, HEPES 6.25 mM, NaCl 120 mM, KCl 5 mM, CaCl2 1.2 mM, MgSO4 1.2 mM, D-glucose 5.6 mM and ascorbic acid 0.5 mM) and were then incubated with 0.5 uCi/ml [3H]Dopamine (Amersham Biosciences) for 20 minutes at 37° C. To measure stimulation-induced [3H]Dopamine release, [3H]Dopamine-loaded cells were rinsed extensively with ice cold buffer, and were treated with 60 mM KCl for 20 minutes at 37° C. and extracellular [3H]Dopamine was measured. Inhibition of VMAT2 was done using dihydrotetrabenazine (0-1 mM). All samples were analyzed with Packard liquid scintillation counter. Experiments were conducted in triplicates and repeated three times.

[1] = test system: SH-SY5Y human neuroblastoma cells; assay: MTT cell viability assay; assay type: cell-based
Experimental: (§1) Cellular transfection and treatment: SH-SY5Y human neuroblastoma cells, obtained from the ATCC (Rockville, USA), were stably transfected with pIRES2-acGFP1 plasmid (BD biosciences, Clontech) containing wild type DJ-1. Decreased expression of DJ-1 was achieved by stable transfection with pSilencer2.1-U6 plasmid (Ambion) containing siRNA for DJ-1. As controls, naïve neuroblastoma cells were used as well as cells stably transfected with the same vectors. Transfections were performed using the lipofectamine 2000 reagent (Invitrogen). Stable transfections were achieved by geneticin treatment and were verified by measuring DJ-1 mRNA and protein levels using real-time PCR and Western blotting.
Cell viability: Cell viability was determined by the MTT (3-(4,5-dimethylthiazole-2-yl)-2,5-diphenyltetrazolium bromide, Sigma) reduction assay. Viability after exposure to increasing dopamine levels was analyzed by adding MIT solution to each well followed by incubation at 37° C. for 3 hours. Absorbance was determined at 564 nm in a microplate reader. Cell viability was evaluated in triplicate for each treatment. All experiments were repeated at least 3 times.

[2] = test system: SH-SY5Y human neuroblastoma cells; assay: Intracellular reactive oxygen species (DCF assay); assay type: cell-based
Experimental: as §1
Measurement of intracellular reactive oxygen species (ROS): The generation of ROS, after exposure to increasing dopamine concentrations, was measured using H2DCFDA (Sigma), which is incorporated into the cells and cleaved into fluorescent DCF in the presence of ROS. 10 μM H2DCFDA was added to the cell suspension, and the cells were incubated in the dark at 37° C. for 10 minutes. DCF fluorescence was measured by FLUOstar spectrofluorometer microplate reader at 520 nm. The generation of ROS was quantitatively assayed by the increase in DCF fluorescence and expressed as percentage of control. Each experiment was repeated at least 3 times in triplicates.

VMAT2 mRNA = assay: Real time quantitative PCR of VMAT2 mRNA; assay type: cell-based, human
Experimental: Cellular transfection and treatment: SH-SY5Y human neuroblastoma cells, obtained from the ATCC (Rockville, USA), were stably transfected with pIRES2-acGFP1 plasmid (BD biosciences, Clontech) containing wild type DJ-1. […] As controls, naïve neuroblastoma cells were used as well as cells stably transfected with the same vectors. Transfections were performed using the lipofectamine 2000 reagent (Invitrogen). Stable transfections were achieved by geneticin treatment and were verified by measuring DJ-1 mRNA and protein levels using real-time PCR and Western blotting. […] RNA isolation and Real time quantitative PCR: Total RNA was isolated from cultured neuroblastoma cells using a commercial reagent TriReagentTM (Sigma). The amount and quality of RNA was determined spectrophotometrically using the ND-1000 spectrophotometer (NanoDrop). […] Real-time quantitative reverse transcription polymerase chain reaction (PCR) of the desired genes was performed in an ABI Prism 7700 sequence detection system (Applied biosystems) using Sybr green PCR master mix (Applied biosystems) and the following primers: GAPDH (used as 'housekeeping' gene) sense: […] […] Real time quantitative PCR (qPCR) was performed using AbsoluteTM QPCR SYBR® Green ROX Mix, in triplicates. Quantitative calculations of the gene of interest versus GAPDH were done using the ddCT method.

ERK 1,2 = test system: ERK 1,2
Experimental: Cells were treated with dopamine (0-500 uM; Sigma. Israel), N-acetylcysteine (NAC 5 mM; Sigma), and PD-98059 (30 uM; Calbiochem, Rosh Haayin, Israel).
Protein extraction and Western blotting: Protein extraction and Western blotting were done as previously described [Lev, N., et al Antioxid. redox signal. 8, 1987-1995 (2006)]. The membranes were probed with rabbit anti-DJ 1 antibody (1:1000; Chemicon Laboratories), mouse anti-VMAT2 (1:100; Chemicon Laboratories), and rabbit anti emerin (1:5000; Santa Cruz), followed by horseradish peroxidase conjugated secondary antibody (1:10000; Sigma) and developed with the Super Signal West Pico Chemiluminescent substrate (Pierce Biotechnology). Densitometry of the specific protein bands was preformed by VersaDoc® imaging system and Quantity One® software (BioRad).
Immunocytochemistry: Cells were fixed with 4% paraformaldehyde and permeabilized with 0.5% Triton X-100 and were then incubated in a blocking solution followed by overnight incubation with rabbit anti-VMAT2 (1:100; Chemicon Laboratories), at 4° C. followed by incubation with alexa-568 conjugated goat anti rabbit antibodies (1:1000; Molecular probes). Nuclei were counterstained by 4′,6-Diamidino-2-phenylindole dihydrochloride (DAPI, Sigma).

VMAT2 promotor = conditions: after exposure to 50 μM dopamine
Experimental: Chromatin immunoprecipitation: ChIP assays using cultured neuroblastoma cells were performed following Upstate instructions. After protein-DNA cross-linking by paraformaldehyde, cells were harvested and the pellets were resuspended in lysis-buffer and sonicated on ice (5 sets of 15-s pulse at 40% maximal power). After pre-clearing with Protein G/A-agarose, aliquots were incubated with DJ-1 antibodies or non-specific antibodies (as control) overnight at 4° C. with rotation. Immunopercipitated DNA was used as templates for the following primers, designed for the human VMAT promotor: sense: [sequence]

[3] = test system: tyrosine hydroxylase (TH); assay: Tyrosine hydroxylase mRNA (real time PCR) and ChIP of TH promotor; assay type: cell-based, human; conditions: DJ-1 overexpressing cells, GAPDH reference
Experimental: RNA isolation and Real time quantitative PCR: Total RNA was isolated from cultured neuroblastoma cells using a commercial reagent TriReagent™ (Sigma). The amount and quality of RNA was determined spectrophotometrically using the ND-1000 spectrophotometer (NanoDrop). First-strand cDNA synthesis was carried out from […] of the total RNA using random primer (Invitrogen) and RT-superscript II (Invitrogen) reverse transcriptase. Real-time quantitative reverse transcription polymerase chain reaction (PCR) of the desired genes was performed in an ABI Prism 7700 sequence detection system (Applied biosystems) using Sybr green PCR master mix (Applied biosystems) and the following primers: GAPDH (used as ‘housekeeping’ gene) sense: CGACAGTCAGCCGCATCTT (SEQ ID NO: 7), GAPDH antisense: […] (SEQ ID NO: 8); DJ-1 sense: […], (SEQ ID NO: 9) DJ-1 antisense: […], (SEQ ID NO:10) VMAT2 sense: […], (SEQ ID NO: 11) VMAT2 antisense: […] (SEQ ID NO: 12). Real time quantitative PCR (qPCR) was performed using Absolute™ QPCR SYBR® Green ROX Mix, in triplicates. Quantitative calculations of the gene of interest versus GAPDH were done using the ddCT method.

[4] = PD98059 30 uM, inhibition of ERK1,2 phosphorylation

Molecule: Br.NCCc1cc(O)c(O)cc1O [6-hydroxydopamine, 6-hydroxydopamine hydrobromide]
- ERK1,2 phosphorylation in striatum (striatum; acute exposure, intrastriatal injection, 30 and 45 minutes): increased phosphorylation of ERK1, 2
- DJ-1 and VMAT-2 protein expression in lesioned vs unlesioned striatum (striatum; unilateral intrastriatal injection, 24 hours): increased expression of DJ-1 and of VMAT-2 proteins

Molecule: COc1cccc(-c2cc(=O)c3ccccc3o2)c1N [PD98059]
- Effect on dopamine-induced DJ-1 mRNA upregulation (DJ-1 mRNA; [4]): inhibited DJ-1 mRNA upregulation
- Effect on dopamine-induced DJ-1 protein upregulation (Western blot) (DJ-1 protein; [4]): abolished DJ-1 protein upregulation

Molecule: COc1cc2c(cc1OC)[C@H]1C[C@@H](O)[C@H](CC(C)C)CN1CC2 [dihydrotetrabenazine]
- KCl induced dopamine release (VMAT2; dihydrotetrabenazine 0-1 mM, 60 mM KCl 20 minutes): abolished

Molecule: NCCc1ccc(O)c(O)c1 [dopamine]
- Cell viability (MTT) after dopamine exposure ([1]; dopamine 0-500 uM, 24 hours, neuroblastoma cells): dose dependent cell death
- Intracellular ROS (DCF assay) after dopamine exposure ([2]; increasing dopamine concentrations, neuroblastoma cells): increased intracellular ROS
- Increase in DJ-1 mRNA (DJ-1 mRNA; 50 μM dopamine, within 1 hour, naïve neuroblastoma cells): 2.5 fold
- VMAT2 mRNA elevation of basal level (VMAT2 mRNA; 50 μM dopamine, after 7 hours, naïve neuroblastoma cells): 60 fold
- DJ-1 protein after dopamine exposure (Western blot) (DJ-1 protein; naïve neuroblastoma cells): Increased DJ-1 protein
- Time to phosphorylation of ERK 1,2 after dopamine exposure (ERK 1,2; naive neuroblastoma, Western blotting and immunocytochemistry): 20 to 60 min
- Phosphorylation of ERK 1 and 2 after dopamine exposure (ERK 1,2; naïve neuroblastoma cells): rapid phosphorylation
- VMAT2 promotor precipitated by anti-DJ-1 antibodies (ChIP) (VMAT2 promotor): higher amounts of VMAT2 promotor were precipitated

Molecule: CC(=O)N[C@@H](CS)C(=O)O [NAC, N-acetylcysteine]
- Effect on dopamine-induced DJ-1 mRNA upregulation (DJ-1 mRNA; pre-treatment with NAC 5 mM, naïve neuroblastoma): abolished DJ-1 mRNA upregulation

B1: DJ-1: wild type DJ-1 overexpressed by stable transfection with pIRES2-acGFP1 plasmid; GenBank AB073864 (protein, listed as Homo sapiens)
chain: MASKRALVILAKGAEEMETVIPVDVMRRAGIKVTVAGLAGKDPVQCSRDVVICPDASLEDAKKEGPYDVVVLPGGNLGAQNLSESAAVKEILKEQENRKGLIAAICAGPTALLAHEIGCGSKVTTHPLAKDKMMNGGHYTYSENRVEKDGLILTSRGPGTSFEFALAIVEALNGKEVAAQVKAPLVLKD
- Protection against rotenone and 6-hydroxydopamine ([1]; DJ-1 overexpressing neuroblastoma cells): protects against dopaminergic toxins
- Vulnerability to dopamine toxicity (MTT viability) ([1]; dopamine 0-500 uM, 24 hours, transfected SH-SY5Y cells): conferred resistance to dopamine
- Dopamine-induced intracellular ROS (DCF assay) ([2]; transfected SH-SY5Y cells vs naïve neuroblastoma): decreased intracellular ROS
- DJ-1 mRNA and protein levels in overexpressing cells (DJ-1 mRNA; stable transfection with wild type DJ-1): over 3 fold
- VMAT2 expression level compared to control (mRNA) (VMAT2 mRNA; stably transfected SH-SY5Y cells): over 500 fold
- KCl-induced dopamine release from synaptic vesicles compared to naïve neuroblastoma cells (VMAT2; transfected SH-SY5Y cells): released more dopamine
- TH mRNA levels (real time PCR) [3]: upregulation of TH mRNA
